# US11345700B2, “Methods of preparing inhibitors of influenza viruses replication” (priority 2013, dated 2022)
# Assays:
# [1] = tested on: influenza A/Wisconsin/67/2005 (H3N2) challenge strain virus; assay: Human influenza challenge: clinical and influenza-like symptom scores; type: in vivo, healthy volunteers (humans)
# Method: Subjects underwent thrice daily nasal swabs, and kept thrice daily score cards for clinical symptoms from Days 1-7, and were discharged from the facility on Day 8, with safety follow-up at approximately Day 28. Nasal swabs were assayed for influenza virus in cell culture (primary analysis) and by qRT-PCR (secondary analysis).
# Subjects recorded clinical symptoms three times a day in diaries. An AUC of clinical and influenza-like symptom scores from Day 1 through Day 7 was calculated.
# influenza A/PR/8/34 = assay: In vivo combination of Compound (1) with zanamivir, influenza A challenge in mice
# Text: Efficiency quotient, a composite measure of survival, bodyweight loss and lung function (% survival/(% body weight loss at Day 8)*(Penh at Day 6)) is summarized in Table 19B.
# [2] = Human influenza challenge: safety assessment, adverse events; type: in vivo, healthy volunteers (humans)
# Text: A list of adverse events occurring in ≥10% of subjects in any treatment group is presented (Table 29). Influenza-like illness was the most frequently reported adverse event, and was reported by an approximately equal proportion of subjects in the placebo and Compound (1) groups.
# [3] = Pooled Compound (1) dose groups (N = 52)
# [4] = Zanamivir 0.3 mg/kg IN x 1 (24 h prior) + Compound (1) 0.3 mg/kg BID (from 2 h prior)
# [5] = Zanamivir 0.3 mg/kg IN x 1 (24 h prior) + Compound (1) 1 mg/kg BID (from 2 h prior)
# [6] = Zanamivir 1 mg/kg IN x 1 (24 h prior) + Compound (1) 0.1 mg/kg BID (from 2 h prior)
# [7] = Zanamivir 1 mg/kg IN x 1 (24 h prior) + Compound (1) 0.3 mg/kg BID (from 2 h prior)
# [8] = Zanamivir 1 mg/kg IN x 1 (24 h prior) + Compound (1) 1 mg/kg BID (from 2 h prior)
# [9] = Zanamivir 3 mg/kg IN x 1 (24 h prior) + Compound (1) 0.1 mg/kg BID (from 2 h prior)
# [10] = Zanamivir 3 mg/kg IN x 1 (24 h prior) + Compound (1) 0.3 mg/kg BID (from 2 h prior)
# [11] = Zanamivir 3 mg/kg IN x 1 (24 h prior) + Compound (1) 1 mg/kg BID (from 2 h prior)
smiles,measurement,setting,value
O=C(O)[C@H]1[C@H]2CC[C@H](CC2)[C@@H]1Nc1nc(-c2c[nH]c3ncc(F)cc23)ncc1F [Compound (1)],"Composite Clinical Symptom AUC, median",[1]; 100 mg QD (N = 12),1.85 Grade*Day
same,"Composite Clinical Symptom Duration, median",[1]; 100 mg QD (N = 12),3.21 days
same,"Composite Clinical Symptom Peak, mean",[1]; 100 mg QD (N = 12),3.17 Grade
same,"Influenza like Symptom AUC, median",[1]; 100 mg QD (N = 12),1.85 Grade*Day
same,"Influenza like Symptom Duration, median",[1]; 100 mg QD (N = 12),3.21 days
same,"Influenza like Symptom Peak, mean",[1]; 100 mg QD (N = 12),2.75 Grade
same,"Composite Clinical Symptom AUC, median",[1]; 400 mg QD (N = 12),4.70 Grade*Day
same,"Composite Clinical Symptom Duration, median",[1]; 400 mg QD (N = 12),3.34 days
same,"Composite Clinical Symptom Peak, mean",[1]; 400 mg QD (N = 12),2.83 Grade
same,"Influenza like Symptom AUC, median",[1]; 400 mg QD (N = 12),3.80 Grade*Day
same,"Influenza like Symptom Duration, median",[1]; 400 mg QD (N = 12),3.34 days
same,"Influenza like Symptom Peak, mean",[1]; 400 mg QD (N = 12),2.42 Grade
same,"Composite Clinical Symptom AUC, median",[1]; 900/600 mg (N = 14),1.75 Grade*Day
same,"Composite Clinical Symptom Duration, median",[1]; 900/600 mg (N = 14),2.69 days
same,"Composite Clinical Symptom Peak, mean",[1]; 900/600 mg (N = 14),3.71 Grade
same,"Influenza like Symptom AUC, median",[1]; 900/600 mg (N = 14),1.75 Grade*Day
same,"Influenza like Symptom Duration, median",[1]; 900/600 mg (N = 14),2.69 days
same,"Influenza like Symptom Peak, mean",[1]; 900/600 mg (N = 14),3.21 Grade
same,"Composite Clinical Symptom AUC, median",[1]; 1200/600 mg (N = 14),1.95 Grade*Day
same,"Composite Clinical Symptom Duration, median",[1]; 1200/600 mg (N = 14),1.88 days
same,"Composite Clinical Symptom Peak, mean",[1]; 1200/600 mg (N = 14),1.50 Grade
same,"Influenza like Symptom AUC, median",[1]; 1200/600 mg (N = 14),1.75 Grade*Day
same,"Influenza like Symptom Duration, median",[1]; 1200/600 mg (N = 14),1.88 days
same,"Influenza like Symptom Peak, mean",[1]; 1200/600 mg (N = 14),1.36 Grade
same,"Composite Clinical Symptom AUC, median",[1]; [3],2.15 Grade*Day
same,"Composite Clinical Symptom Duration, median",[1]; [3],2.34 days
same,"Composite Clinical Symptom Peak, mean",[1]; [3],2.79 Grade
same,"Influenza like Symptom AUC, median",[1]; [3],2.05 Grade*Day
same,"Influenza like Symptom Duration, median",[1]; [3],2.34 days
same,"Influenza like Symptom Peak, mean",[1]; [3],2.42 Grade
same,Survival Rate,"influenza A/PR/8/34; Compound (1) 0.1 mg/kg BID 10 days, 1st dose 2 h prior to infection, Zanamivir 0",12.5
same,Survival Rate,"influenza A/PR/8/34; Compound (1) 0.3 mg/kg BID 10 days, 1st dose 2 h prior to infection, Zanamivir 0",44.4
same,Efficiency Quotient (% survival/(% body weight loss at Day 8)*(Penh at Day 6)),"influenza A/PR/8/34; Compound (1) 0.3 mg/kg BID, 1st dose 2 h prior to infection, Zanamivir 0",0.59
same,Survival Rate,"influenza A/PR/8/34; Compound (1) 1 mg/kg BID 10 days, 1st dose 2 h prior to infection, Zanamivir 0",100
same,Efficiency Quotient (% survival/(% body weight loss at Day 8)*(Penh at Day 6)),"influenza A/PR/8/34; Compound (1) 1 mg/kg BID, 1st dose 2 h prior to infection, Zanamivir 0",2.32
same,Survival Rate,influenza A/PR/8/34; Zanamivir 0.3 mg/kg IN x 1 (24 h prior) + Compound (1) 0.1 mg/kg BID (from 2 h prior),0
same,Efficiency Quotient (% survival/(% body weight loss at Day 8)*(Penh at Day 6)),influenza A/PR/8/34; [4],1.35
same,Survival Rate,influenza A/PR/8/34; [4],100
same,Efficiency Quotient (% survival/(% body weight loss at Day 8)*(Penh at Day 6)),influenza A/PR/8/34; [5],2.97
same,Survival Rate,influenza A/PR/8/34; [5],100
same,Efficiency Quotient (% survival/(% body weight loss at Day 8)*(Penh at Day 6)),influenza A/PR/8/34; [6],1.00
same,Survival Rate,influenza A/PR/8/34; [6],75
same,Efficiency Quotient (% survival/(% body weight loss at Day 8)*(Penh at Day 6)),influenza A/PR/8/34; [7],1.61
same,Survival Rate,influenza A/PR/8/34; [7],100
same,Efficiency Quotient (% survival/(% body weight loss at Day 8)*(Penh at Day 6)),influenza A/PR/8/34; [8],2.31
same,Survival Rate,influenza A/PR/8/34; [8],100
same,Efficiency Quotient (% survival/(% body weight loss at Day 8)*(Penh at Day 6)),influenza A/PR/8/34; [9],1.30
same,Survival Rate,influenza A/PR/8/34; [9],100
same,Efficiency Quotient (% survival/(% body weight loss at Day 8)*(Penh at Day 6)),influenza A/PR/8/34; [10],1.48
same,Survival Rate,influenza A/PR/8/34; [10],100
same,Efficiency Quotient (% survival/(% body weight loss at Day 8)*(Penh at Day 6)),influenza A/PR/8/34; [11],4.28
same,Survival Rate,influenza A/PR/8/34; [11],100
same,tolerability,"[2]; 100 mg to 1200/600 mg QD for 5 days, healthy volunteers",well tolerated
same,Adverse event: Alanine aminotransferase increased,"[2]; 100 mg, N = 16",3 (18.8) n(%)
same,Adverse event: Aspartate aminotransferase increased,"[2]; 100 mg, N = 16",1 (6.3) n(%)
same,Adverse event: Blood phosphorus decreased,"[2]; 100 mg, N = 16",3 (18.8) n(%)
same,Adverse event: Dermatitis contact,"[2]; 100 mg, N = 16",3 (18.8) n(%)
same,Adverse event: Headache,"[2]; 100 mg, N = 16",1 (6.3) n(%)
same,Adverse event: Influenza-like illness,"[2]; 100 mg, N = 16",8 (50.0) n(%)
same,Adverse event: Malaise,"[2]; 100 mg, N = 16",2 (12.5) n(%)
same,Adverse event: Nasal congestion,"[2]; 100 mg, N = 16",0 n(%)
same,Adverse event: Nausea,"[2]; 100 mg, N = 16",0 n(%)
same,Adverse event: Oropharylngeal pain,"[2]; 100 mg, N = 16",2 (12.5) n(%)
same,Adverse event: Rhinorrhea,"[2]; 100 mg, N = 16",0 n(%)
same,Adverse event: Spirometry abnormal,"[2]; 100 mg, N = 16",2 (12.5) n(%)
same,Adverse event: Tension Headache,"[2]; 100 mg, N = 16",0 n(%)
same,Adverse event: Alanine aminotransferase increased,"[2]; 400 mg, N = 19",1 (5.3) n(%)
same,Adverse event: Aspartate aminotransferase increased,"[2]; 400 mg, N = 19",1 (5.3) n(%)
same,Adverse event: Blood phosphorus decreased,"[2]; 400 mg, N = 19",0 n(%)
